These compounds were tested on barnyard grass (Eo) (assay: Test Example 1: herbicidal effects by flooded paddy field treatment). Details: dose 100 g active ingredient per 10 ares, examined on the 21st day after treatment, standards of Table 44.
Type: in vivo
Set-up: herbicidal effects, Eo (barnyard grass):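 0-5 growth inhibition grade; 5 = over 90%; 4 = 70-90%; 3 = 50-70%; 2 = 30-50%; 1 = 10-30%; 0 = under 10%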
Procedure, shortened: (§1)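 Seeds sown in puddled paddy soil and flooded to 3 cm. Next day, a water-diluted wettable powder was dripped onto the water surface at 100 g active ingredient per 10 ares. Plants were grown in a greenhouse, and herbicidal effect was scored against a rating standard 21 days after treatment.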

Structure (SMILES)	herbicidal effects, Eo (barnyard grass)
COc1ncncc1C(C(C)C)N(C)C(=O)Cc1ccc(C)cc1 (racemic) [1-404]	5
CCc1ncncc1C(N(C)C(=O)Cc1ccc(Cl)cc1)C(C)(C)C (racemic) [1-566]	5
COCc1ncncc1C(C(C)C)N(C)C(=O)C(C)c1ccc(Cl)cc1 (mixture of isomers) [1-591]	5
CC(=O)c1ncncc1C(C(C)C)N(C)C(=O)C(C)c1ccc(Cl)cc1 (mixture of isomers) [1-530]	5
CCCC(c1cncnc1C(C)C)N(C)C(=O)Cc1ccc(C)cc1 (racemic) [1-452]	5
COC(C)(OC)c1ncncc1C(C(C)C)N(C)C(=O)Cc1ccc(Cl)cc1 (racemic) [1-517]	5
CCc1ncncc1C(C(C)C)N(C)S(=O)(=O)c1ccccc1 (racemic) [4-2]	5
CON(C(=O)Cc1ccc(F)cc1)C(c1cncnc1C(F)(F)F)C(C)C (racemic) [1-333]	5
CCCc1ncncc1C(CCC)N(C)C(=O)Cc1ccccc1 (racemic) [1-492]	5
CCCc1ncncc1C(CCC)N(C)C(=O)Cc1ccc(Cl)cc1 (racemic) [1-494]	5
CC(C)C(c1cncnc1C#N)N(C)C(=O)Cc1ccc(F)cc1 (racemic) [1-505]	5

These compounds were tested on monochoria (Mo) in the same assay as above. Details: dose 100 g active ingredient per 10 ares, examined on the 21st day after treatment, standards of Table 44.
Type: in vivo
Set-up: herbicidal effects, Mo (monochoria):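 0-5 growth inhibition grade; 5 = over 90%; 4 = 70-90%; 3 = 50-70%; 2 = 30-50%; 1 = 10-30%; 0 = under 10%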
Procedure, shortened: as §1

Structure (SMILES)	herbicidal effects, Mo (monochoria)
COc1ncncc1C(C(C)C)N(C)C(=O)Cc1ccc(C)cc1 (racemic) [1-404]	5
CCc1ncncc1C(N(C)C(=O)Cc1ccc(Cl)cc1)C(C)(C)C (racemic) [1-566]	5
COCc1ncncc1C(C(C)C)N(C)C(=O)C(C)c1ccc(Cl)cc1 (mixture of isomers) [1-591]	5
CC(=O)c1ncncc1C(C(C)C)N(C)C(=O)C(C)c1ccc(Cl)cc1 (mixture of isomers) [1-530]	5
CCCC(c1cncnc1C(C)C)N(C)C(=O)Cc1ccc(C)cc1 (racemic) [1-452]	5
COC(C)(OC)c1ncncc1C(C(C)C)N(C)C(=O)Cc1ccc(Cl)cc1 (racemic) [1-517]	5
CCc1ncncc1C(C(C)C)N(C)S(=O)(=O)c1ccccc1 (racemic) [4-2]	5
CON(C(=O)Cc1ccc(F)cc1)C(c1cncnc1C(F)(F)F)C(C)C (racemic) [1-333]	5
CCCc1ncncc1C(CCC)N(C)C(=O)Cc1ccccc1 (racemic) [1-492]	5
CCCc1ncncc1C(CCC)N(C)C(=O)Cc1ccc(Cl)cc1 (racemic) [1-494]	5
CC(C)C(c1cncnc1C#N)N(C)C(=O)Cc1ccc(F)cc1 (racemic) [1-505]	5

The compounds below were run on barnyard grass (Ec) (assay: Test Example 2: herbicidal effects by upland soil treatment). Details: dose 100 g active ingredient per 10 ares, examined on the 21st day after treatment.
Type: in vivo
Set-up: scale not given here
Procedure, shortened: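 Pre-emergence test: barnyard grass and green foxtail sown in upland soil, then soil surface sprayed with wettable-powder formulation at 100 g active ingredient per 10 ares (100 l per 10 ares). Grown in greenhouse; herbicidal effect scored on a rating scale 21 days after treatment.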

Structure (SMILES)	Ec (herbicidal effects, index)
COc1ncncc1C(C(C)C)N(C)C(=O)Cc1ccc(C)cc1 (racemic) [1-404]	5
CCc1ncncc1C(N(C)C(=O)Cc1ccc(Cl)cc1)C(C)(C)C (racemic) [1-566]	5
COCc1ncncc1C(C(C)C)N(C)C(=O)C(C)c1ccc(Cl)cc1 (mixture of isomers) [1-591]	5
CC(=O)c1ncncc1C(C(C)C)N(C)C(=O)C(C)c1ccc(Cl)cc1 (mixture of isomers) [1-530]	5
CCCC(c1cncnc1C(C)C)N(C)C(=O)Cc1ccc(C)cc1 (racemic) [1-452]	5
COC(C)(OC)c1ncncc1C(C(C)C)N(C)C(=O)Cc1ccc(Cl)cc1 (racemic) [1-517]	5
CCc1ncncc1C(C(C)C)N(C)S(=O)(=O)c1ccccc1 (racemic) [4-2]	5
CON(C(=O)Cc1ccc(F)cc1)C(c1cncnc1C(F)(F)F)C(C)C (racemic) [1-333]	5
CCCc1ncncc1C(CCC)N(C)C(=O)Cc1ccccc1 (racemic) [1-492]	5
CCCc1ncncc1C(CCC)N(C)C(=O)Cc1ccc(Cl)cc1 (racemic) [1-494]	5
CC(C)C(c1cncnc1C#N)N(C)C(=O)Cc1ccc(F)cc1 (racemic) [1-505]	5

Each compound was assayed on barnyard grass (Ec) (assay: Test Example 3: herbicidal effects by foliage treatment in upland field). Details: dose 100 g active ingredient per 10 ares, examined on the 14th day after treatment.
Type: in vivo
Set-up: scale not given here
Procedure, shortened: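 Barnyard grass and green foxtail were grown in upland soil for 2 weeks in a greenhouse. A water-diluted wettable powder was sprayed over the foliage at 100 l per 10 ares, giving 100 g active ingredient per 10 ares. Herbicidal effect was scored on day 14 after treatment.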

Structure (SMILES)	Ec (herbicidal effects, index)
COc1ncncc1C(C(C)C)N(C)C(=O)Cc1ccc(C)cc1 (racemic) [1-404]	5
CCc1ncncc1C(N(C)C(=O)Cc1ccc(Cl)cc1)C(C)(C)C (racemic) [1-566]	4
COCc1ncncc1C(C(C)C)N(C)C(=O)C(C)c1ccc(Cl)cc1 (mixture of isomers) [1-591]	4
CC(=O)c1ncncc1C(C(C)C)N(C)C(=O)C(C)c1ccc(Cl)cc1 (mixture of isomers) [1-530]	4
CCCC(c1cncnc1C(C)C)N(C)C(=O)Cc1ccc(C)cc1 (racemic) [1-452]	4
COC(C)(OC)c1ncncc1C(C(C)C)N(C)C(=O)Cc1ccc(Cl)cc1 (racemic) [1-517]	4
CCc1ncncc1C(C(C)C)N(C)S(=O)(=O)c1ccccc1 (racemic) [4-2]	5
CON(C(=O)Cc1ccc(F)cc1)C(c1cncnc1C(F)(F)F)C(C)C (racemic) [1-333]	4
CCCc1ncncc1C(CCC)N(C)C(=O)Cc1ccccc1 (racemic) [1-492]	5
CCCc1ncncc1C(CCC)N(C)C(=O)Cc1ccc(Cl)cc1 (racemic) [1-494]	5
CC(C)C(c1cncnc1C#N)N(C)C(=O)Cc1ccc(F)cc1 (racemic) [1-505]	5

These compounds were tested on barnyard grass (Eo) (assay: Test Example 4: selectivity for a crop plant by flooded paddy field treatment). Details: barnyard grass, dose 25 gai/10a, 21st day after treatment, index per Table 44.
Type: in vivo
Set-up: scale not given here
Procedure, shortened: (§2)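 Paddled paddy soil in pots sown with barnyard grass and monochoria, with second-leaf-stage rice transplanted, under 3 cm of water. Next day a diluted wettable powder was dripped onto the water at 25 g active ingredient per 10 ares; effects scored on a rating scale 21 days later in a greenhouse.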

Structure (SMILES)	Eo (herbicidal effect index)
COc1ncncc1C(C(C)C)N(C)C(=O)Cc1ccc(C)cc1 (racemic) [1-404]	5
CCc1ncncc1C(N(C)C(=O)Cc1ccc(Cl)cc1)C(C)(C)C (racemic) [1-566]	5
COCc1ncncc1C(C(C)C)N(C)C(=O)C(C)c1ccc(Cl)cc1 (mixture of isomers) [1-591]	5
CC(=O)c1ncncc1C(C(C)C)N(C)C(=O)C(C)c1ccc(Cl)cc1 (mixture of isomers) [1-530]	5
CCCC(c1cncnc1C(C)C)N(C)C(=O)Cc1ccc(C)cc1 (racemic) [1-452]	5
COC(C)(OC)c1ncncc1C(C(C)C)N(C)C(=O)Cc1ccc(Cl)cc1 (racemic) [1-517]	5
CCc1ncncc1C(C(C)C)N(C)S(=O)(=O)c1ccccc1 (racemic) [4-2]	5
CON(C(=O)Cc1ccc(F)cc1)C(c1cncnc1C(F)(F)F)C(C)C (racemic) [1-333]	5
CCCc1ncncc1C(CCC)N(C)C(=O)Cc1ccccc1 (racemic) [1-492]	5
CCCc1ncncc1C(CCC)N(C)C(=O)Cc1ccc(Cl)cc1 (racemic) [1-494]	5
CC(C)C(c1cncnc1C#N)N(C)C(=O)Cc1ccc(F)cc1 (racemic) [1-505]	5

The compounds below were run on monochoria (Mo) in the same assay as above. Details: monochoria, dose 25 gai/10a, 21st day after treatment, index per Table 44.
Type: in vivo
Set-up: scale not given here
Procedure, shortened: as §2

Structure (SMILES)	Mo (herbicidal effect index)
COc1ncncc1C(C(C)C)N(C)C(=O)Cc1ccc(C)cc1 (racemic) [1-404]	5
CCc1ncncc1C(N(C)C(=O)Cc1ccc(Cl)cc1)C(C)(C)C (racemic) [1-566]	5
COCc1ncncc1C(C(C)C)N(C)C(=O)C(C)c1ccc(Cl)cc1 (mixture of isomers) [1-591]	5
CC(=O)c1ncncc1C(C(C)C)N(C)C(=O)C(C)c1ccc(Cl)cc1 (mixture of isomers) [1-530]	5
CCCC(c1cncnc1C(C)C)N(C)C(=O)Cc1ccc(C)cc1 (racemic) [1-452]	5
COC(C)(OC)c1ncncc1C(C(C)C)N(C)C(=O)Cc1ccc(Cl)cc1 (racemic) [1-517]	5
CCc1ncncc1C(C(C)C)N(C)S(=O)(=O)c1ccccc1 (racemic) [4-2]	5
CON(C(=O)Cc1ccc(F)cc1)C(c1cncnc1C(F)(F)F)C(C)C (racemic) [1-333]	5
CCCc1ncncc1C(CCC)N(C)C(=O)Cc1ccccc1 (racemic) [1-492]	5
CCCc1ncncc1C(CCC)N(C)C(=O)Cc1ccc(Cl)cc1 (racemic) [1-494]	5
CC(C)C(c1cncnc1C#N)N(C)C(=O)Cc1ccc(F)cc1 (racemic) [1-505]	5

These compounds were tested on rice (Or) in the same assay as above. Details: rice transplanted at second leaf stage, dose 25 gai/10a, 21st day after treatment, index per Table 44.
Type: in vivo
Set-up: scale not given here
Procedure, shortened: as §2

Structure (SMILES)	Or (herbicidal effect index on crop)
COc1ncncc1C(C(C)C)N(C)C(=O)Cc1ccc(C)cc1 (racemic) [1-404]	1
CCc1ncncc1C(N(C)C(=O)Cc1ccc(Cl)cc1)C(C)(C)C (racemic) [1-566]	1
COCc1ncncc1C(C(C)C)N(C)C(=O)C(C)c1ccc(Cl)cc1 (mixture of isomers) [1-591]	1
CC(=O)c1ncncc1C(C(C)C)N(C)C(=O)C(C)c1ccc(Cl)cc1 (mixture of isomers) [1-530]	1
CCCC(c1cncnc1C(C)C)N(C)C(=O)Cc1ccc(C)cc1 (racemic) [1-452]	0
COC(C)(OC)c1ncncc1C(C(C)C)N(C)C(=O)Cc1ccc(Cl)cc1 (racemic) [1-517]	1
CCc1ncncc1C(C(C)C)N(C)S(=O)(=O)c1ccccc1 (racemic) [4-2]	1
CON(C(=O)Cc1ccc(F)cc1)C(c1cncnc1C(F)(F)F)C(C)C (racemic) [1-333]	1
CCCc1ncncc1C(CCC)N(C)C(=O)Cc1ccccc1 (racemic) [1-492]	0
CCCc1ncncc1C(CCC)N(C)C(=O)Cc1ccc(Cl)cc1 (racemic) [1-494]	1
CC(C)C(c1cncnc1C#N)N(C)C(=O)Cc1ccc(F)cc1 (racemic) [1-505]	0
